Measured values reported in US12122778B2, “Activating pyruvate kinase R” (Novo Nordisk Health Care AG, priority 2018, dated 2024).

Columns and labels:
PKR(wt) = PKR(wt) (Homo sapiens, UniProt P30613); experiment: Luminescence Biochemical Assay (Kinase Glo Plus), wild type PKR; conditions: without FBP; for activation at 1.54 µM: 1.54 μM compound, read-out: AC50 LUM KGP woFBP % Fold@1.54 μM mean; for AC50: read-out: AC50 LUM KGP woFBP AC50 μM gmean; for Emax: read-out: AC50 LUM KGP woFBP MAX % FOLD mean
Chain of PKR(wt) (P30613 whole entry): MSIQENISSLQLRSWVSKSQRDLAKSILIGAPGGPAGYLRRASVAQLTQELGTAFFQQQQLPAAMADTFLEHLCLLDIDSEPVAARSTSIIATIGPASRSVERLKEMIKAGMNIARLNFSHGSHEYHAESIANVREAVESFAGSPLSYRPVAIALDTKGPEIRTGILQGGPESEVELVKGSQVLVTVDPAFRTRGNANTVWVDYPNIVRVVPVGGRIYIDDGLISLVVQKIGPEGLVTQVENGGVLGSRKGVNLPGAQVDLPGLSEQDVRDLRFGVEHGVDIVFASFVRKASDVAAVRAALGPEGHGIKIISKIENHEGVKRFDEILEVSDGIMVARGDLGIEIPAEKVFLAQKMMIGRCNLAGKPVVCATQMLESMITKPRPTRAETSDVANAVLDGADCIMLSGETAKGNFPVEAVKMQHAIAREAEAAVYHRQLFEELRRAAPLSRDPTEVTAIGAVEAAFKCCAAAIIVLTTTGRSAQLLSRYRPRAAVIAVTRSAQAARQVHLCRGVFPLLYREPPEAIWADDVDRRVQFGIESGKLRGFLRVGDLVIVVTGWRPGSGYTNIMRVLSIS

PKR(R510Q) = PKR(R510Q) (Homo sapiens, UniProt P30613, R510Q); experiment: Luminescence Biochemical Assay (Kinase Glo Plus), PKR R510Q mutant; conditions: without FBP; for activation at 1.54 µM: 1.54 μM compound, read-out: AC50 LUM KGP woFBP % Fold@1.54 μM mean; for AC50: read-out: AC50 LUM KGP woFBP AC50 μM gmean; for Emax: read-out: AC50 LUM KGP woFBP MAX % FOLD mean
Chain of PKR(R510Q) (P30613 whole entry R510Q): as the sequence (P30613 whole entry) above, with R510Q counted along it

PKR(G332S) = PKR(G332S) (Homo sapiens, UniProt P30613, G332S); experiment: Luminescence Biochemical Assay (Kinase Glo Plus), PKR G332S mutant; conditions: with FBP; for activation at 1.54 µM: 1.54 μM compound, read-out: AC50 LUM KGP FBP % Fold@1.54 μM mean; for AC50: read-out: AC50 LUM KGP FBP AC50 μM gmean (column A); for Emax: read-out: AC50 LUM KGP FBP MAX % FOLD mean
Chain of PKR(G332S) (P30613 whole entry G332S): as the sequence (P30613 whole entry) above, with G332S counted along it

Compound | activation at 1.54 µM (PKR(wt)) | AC50 (PKR(wt)) | Emax (PKR(wt)) | activation at 1.54 µM (PKR(R510Q)) | AC50 (PKR(R510Q)) | Emax (PKR(R510Q)) | activation at 1.54 µM (PKR(G332S)) | AC50 (PKR(G332S)) | Emax (PKR(G332S))
O=C(N1CCOCC1)N1CC2=C(C1)CN(S(=O)(=O)c1ccc3ncsc3c1)C2 [Example 6-1, (5-(benzo[d]thiazol-6-ylsulfonyl)-3,4,5,6-tetrahydropyrrolo[3,4-c]pyrrol-2(1H)-yl)(morpholino)methanone] | 75 to 250% | 1 to 40 µM | 250 to 500% | 75 to 250% | 1 to 40 µM | 250 to 500% | 75 to 250% | 1 to 40 µM | 75 to 250%
O=C([C@@H]1CCCO1)N1CC2=C(C1)CN(S(=O)(=O)c1ccccn1)C2 [Example 18-69, 2-({5-[(2S)-oxolane-2-carbonyl]-1H,2H,3H,4H,5H,6H-pyrrolo[3,4-c]pyrrol-2-yl}sulfonyl)pyridine] | 75 to 250% | 1 to 40 µM | 75 to 250% | 75 to 250% | 1 to 40 µM | 75 to 250% | 75 to 250% | 1 to 40 µM | 75 to 250%
Cc1nc(CC(=O)N2CC3=C(C2)CN(S(=O)(=O)c2ccccn2)C3)cs1 [Example 18-68, 2-(2-Methyl-1,3-thiazol-4-yl)-1-[5-(pyridine-2-sulfonyl)-1H,2H,3H,4H,5H,6H-pyrrolo[3,4-c]pyrrol-2-yl]ethan-1-one] | 75 to 250% | 1 to 40 µM | 250 to 500% | 75 to 250% | 1 to 40 µM | 75 to 250% | 75 to 250% | 0.1 to 1 µM | 75 to 250%
O=C(C(O)c1cccnc1)N1CC2=C(C1)CN(S(=O)(=O)c1ccc(OC(F)F)cc1)C2 (stereo not drawn) [Example 9-1, 1-(5-[[4-(Difluoromethoxy)benzene]sulfonyl]-1H,2H,3H,4H,5H,6H-pyrrolo[3,4-c]pyrrol-2-yl)-2-hydroxy-2-(pyridin-3-yl)ethan-1-one] | 250 to 50000% | ≤ 0.1 µM | 250 to 500% | 250 to 50000% | ≤ 0.1 µM | 250 to 500% | 75 to 250% | ≤ 0.1 µM | 75 to 250%
O=C([C@H](O)c1ccccc1)N1CC2=C(C1)CN(S(=O)(=O)c1cccc(C(F)(F)F)n1)C2 [Example 9-3, (2R)-2-hydroxy-2-phenyl-1-[5-[6-(trifluoromethyl)pyridine-2-sulfonyl]-1H,2H,3H,4H,5H,6H-pyrrolo[3,4-c]pyrrol-2-yl]ethan-1-one] | 75 to 250% | 0.1 to 1 µM | 75 to 250% | 75 to 250% | 1 to 40 µM | 250 to 500% | 75 to 250% | 1 to 40 µM | 75 to 250%
Cc1ccc(S(=O)(=O)N2CC3=C(CN(C(=O)[C@H](O)c4ccccc4)C3)C2)cc1F [Example 18-51, (2R)-1-[5-(3-fluoro-4-methylbenzenesulfonyl)-1H,2H,3H,4H,5H,6H-pyrrolo[3,4-c]pyrrol-2-yl]-2-hydroxy-2-phenylethan-1-one] | 75 to 250% | 0.1 to 1 µM | 75 to 250% | 75 to 250% | 0.1 to 1 µM | 250 to 500% | 75 to 250% | 1 to 40 µM | 75 to 250%
O=C(C1CCOCC1)N1CC2=C(C1)CN(S(=O)(=O)c1ccc3c(c1)NCCO3)C2 [Example 7-1, (5-((3,4-dihydro-2H-benzo[b][1,4]oxazin-6-yl)sulfonyl)-3,4,5,6-tetrahydropyrrolo[3,4-c]pyrrol-2(1H)-yl)(tetrahydro-2H-pyran-4-yl)methanone] | 75 to 250% | 0.1 to 1 µM | 250 to 500% | 75 to 250% | 1 to 40 µM | 250 to 500% | 75 to 250% | 0.1 to 1 µM | 75 to 250%
Cc1cc(COC(=O)N2CC3=C(C2)CN(S(=O)(=O)c2ccc(OC(F)F)cc2)C3)nn1C [Example 22-4, (1,5-Dimethyl-1H-pyrazol-3-yl)methyl 5-[4-(difluoromethoxy)benzenesulfonyl]-1H,2H,3H,4H,5H,6H-pyrrolo[3,4-c]pyrrole-2-carboxylate] | 250 to 50000% | 0.1 to 1 µM | 250 to 500% | 250 to 50000% | 1 to 40 µM | 250 to 500% | 75 to 250% | 0.1 to 1 µM | 75 to 250%
O=C([C@H](O)c1ccccc1)N1CC2=C(C1)CN(S(=O)(=O)c1cccnc1C(F)(F)F)C2 [Example 4-2, (R)-2-hydroxy-2-phenyl-1-(5-(2-(trifluoromethyl)pyridin-3-ylsulfonyl)-4,5-dihydropyrrolo[3,4-c]pyrrol-2(1H,3H,4H)-yl)ethanone] | 75 to 250% | 1 to 40 µM | 75 to 250% | 75 to 250% | 1 to 40 µM | 75 to 250% | 75 to 250% | 1 to 40 µM | 75 to 250%
